According to patent US20050090522A1 (priority 2001, published 2005):
Like-named read-outs stand apart in the source and are kept apart here.

Legend:
[1] = tested on: HIV-1; experiment: HIV-1 single-round infectious luciferase reporter virus (pseudotype) assay in HeLa CD4 CCR5 cells; format: cell-based
Summary of the method: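 HeLa CD4 CCR5 cells (5×10^4/well, DMEM + 10% FBS) were treated with compound (final <10 μM) and infected with single-round luciferase reporter virus made in 293 cells, at MOI ~0.01. Luciferase was read 72 h post infection. EC50 came from 10-concentration percent-inhibition curves fitted to a four-parameter logistic model.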

[2] = tested on: HeLa cells; experiment: Cytotoxicity assay in HeLa cells (MTT dye reduction, CC50)
Experimental: • Virus production—Human embryonic Kidney cell line, 293, propagated in Dulbecco's Modified Eagle Medium (Life Technologies, Gaithersburg, Md.) containing 10% fetal Bovine serum (FBS, Sigma, St. Louis, Mo.). • Virus infection—Human epithelial cell line, HeLa, expressing the HIV-1 receptors CD4 and CCR^5 was propagated in Dulbecco's Modified Eagle Medium (Life Technologies, Gaithersburg, Md.) containing 10% fetal Bovine serum (FBS, Sigma, St. Louis, Mo.) and supplemented with 0.2 mg/mL Geneticin (Life Technologies, Gaithersburg, Md.) and 0.4 mg/mL Zeocin (Invitrogen, Carlsbad, Calif.). […] Transfections were performed using lipofectAMINE PLUS reagent as described by the manufacturer (Life Technologies, Gaithersburg, Md.). Experiment • 1. Compound was added to HeLa CD4 CCR5 cells plated in 96 well plates at a cell density of 5×10^4 cells per well in 100 μl Dulbecco's Modified Eagle Medium containing 10% fetal Bovine serum at a concentration of […]. • 2. 100 μl of single-round infectious reporter virus in Dulbecco's Modified Eagle Medium was then added to the plated cells and compound at an approximate multiplicity of infection (MOI) of 0.01, resulting in a final volume of 200 μl per well and a final compound concentration of <10 μM. • 3. Samples were harvested 72 h after infection. • 4. Viral infection was monitored by measuring luciferase expression from viral DNA in the infected cells using a luciferase reporter gene assay kit (Roche Molecular Biochemicals, Indianapolis, Ind.). Infected cell supernatants were removed and 50 μl of Dulbecco's Modified Eagle Medium (without phenol red) and 50 μl of luciferase assay reagent reconstituted as described by the manufacturer (Roche Molecular Biochemicals, Indianapolis, Ind.) was added per well. Luciferase activity was then quantified by measuring luminescence using a Wallac microbeta scintillation counter. • 5. […] An EC50 provides a method for comparing the antiviral potency of the compounds of this invention. The effective concentration for fifty percent inhibition (EC50) was calculated with the Microsoft Excel Xlfit curve fitting software. For each compound, curves were generated from percent inhibition calculated at 10 different concentrations by using a four paramenter logistic model (model 205). Table 1 is the key for the data in Tables 2-4. Cytoxicity assays were conducted with the same HeLa using methodology well known in the art.
(§1) For accuracy, the determined measure of viral inhibition is an EC50; but the minimum plasma concentrations which should be maintained in a patient is generally believed to be at least four or five fold higher. […] Lower is better. • 4) Estimating potential exposure in man by measuring parameters such as AUC and rate of clearance by oral and iv dosing in rats. High exposure and low clearance was desired.

[3] = Metabolic stability in pooled human liver microsomes (HLM); conditions: 3 μM drug
Experimental: Metabolic Stability Studies of compounds in Liver Microsomes. The metabolic stability of compounds were investigated in pooled liver microsomes from humans. The human liver microsomes were obtained from BD Gentest (Lot #16, Woburn, Mass.) with a protein concentration of 20 mg/ml and a total cytochrome P450 (CYP) concentration of 0.55 nmol/mg protein. A stock solution of drug was prepared in acetonitrile at 1 mM. […] The incubation media consisted of potassium phosphate buffer (0.1 M, pH 7.4), liver microsomes (final concentration 0.9 mg/ml), magnesium chloride (0.033 mM), and a NADPH-regenerating system. […] The test compound was pre-incubated in the media for 2 min. The reaction was initiated by the addition of the cofactors. The incubation was carried out at 37° C. for 10 min. The reaction was terminated by drawing an aliquot of 100 μL from the incubation and adding into 200 μL of acetonitrile containing a reference compound as an […] analytical standard. Following vortex-mixing and centrifugation, an aliquot of 10 μL of the supernatant was analyzed by LC/MS.
GUIDELINES can be used to categorized test substances as low, intermediate or highly cleared compounds.
as §1
The stability of compounds were also evaluated to determine metabolic stability when incubated in in vitro preparations of human liver microsomes (HLM). This is one commonly used predictive system for evaluating the potential for human metabolism and projecting clearance rates in man. Compounds with low clearance rates were most desireable.

[4] = Human immunodeficiency virus 1, HeLa-CD4/CCR5, read-out: EC50 Group from TABLE 1, HeLa CD4 CCR5 cells, single-round infectious luciferase reporter virus
[5] = Human immunodeficiency virus 1, HeLa-CD4/CCR5, read-out: EC50 category, HIV-1 single-round reporter virus assay, category 1/2/3 per Table A1 key
[6] = cytotoxicity, Yes = CC50 above 100 uM, No = not
[7] = pooled human liver microsomes, Low/Intermediate/High
[8] = Human immunodeficiency virus 1, HeLa-CD4/CCR5, read-out: EC50 Group from Table 1, Table 2-1, HeLa CD4 CCR5 cells, single-round luciferase reporter virus
[9] = Human immunodeficiency virus 1, HeLa-CD4/CCR5, read-out: EC50 category, initial pseudotype assay, key in Table A1
[10] = HeLa cells, six days with drug, MTT
[11] = 0.9 mg/ml microsomes, 37° C., 10 min

Row | SMILES | EC50 [1, 4] [nM] | EC50 [1, 5] [nM] | CC50 > 100 uM [2, 6] | HLM predicted human clearance class [3, 7] | EC50 [1, 8] [nM] | EC50 [1, 9] [nM] | CC50 > 100 uM [2, 10] | HLM predicted human clearance class [3, 11] | EC50 ([1]; Human immunodeficiency virus 1, HeLa-CD4/CCR5, 72 h, read-out: EC50 Group from Table 1, HeLa CD4 CCR5 cells, luciferase reporter virus, harvested 72 h after infection) [nM] | EC50 ([1]; Human immunodeficiency virus 1, HeLa-CD4/CCR5, read-out: EC50 Group from Table 1, Table 4, HeLa CD4 CCR5 cells, single-round luciferase reporter virus) [nM]
1 | O=C(C(=O)N1CCN(C(=O)c2ccccc2)CC1)c1c[nH]c2c(N3CCCC3)ncc(F)c12 [Example 221] | < 1000 | 0.2 to 1000 | Yes | Low (0-0.100) | – | – | – | – | – | –
2 | Cc1noc(-c2ncc(F)c3c(C(=O)C(=O)N4CCN(C(=O)c5ccccc5)CC4)c[nH]c23)n1 [Example 300] | < 1000 | 0.2 to 1000 | Yes | Low (0-0.100) | – | – | – | – | – | –
3 | COc1cnc(-n2cnc(C(=O)N(C)C)n2)c2[nH]cc(C(=O)C(=O)N3CCN(C(=O)c4ccccc4)CC3)c12 [Example 275, 1-benzoyl-4-[(4-methoxy-7-(3-dimethylaminocarbonyl-1,2,4-triazol-1-yl)-6-azaindol-3-yl)-oxoacetyl]piperazine] | < 1000 | < 0.2 | Yes | Low (0-0.100) | – | – | – | – | – | –
4 | CCc1ccn(-c2ncc(OC)c3c(C(=O)C(=O)N4CCN(C(=O)c5ccccc5)[C@H](C)C4)c[nH]c23)n1 [Example 230, (R)-1-benzoyl-2-methyl-4-[(4-methoxy-7-(3-ethyl-pyrazol-1-yl)-6-azaindol-3-yl)-oxoacetyl]piperazine] | – | < 0.2 | Yes | Intermediate (0.101-0.200) | < 1000 | – | – | – | – | –
5 | COc1cnc(-n2ncc(C)n2)c2[nH]cc(C(=O)C(=O)N3CCN(C(=O)c4ccccc4)[C@H](C)C3)c12 [Example 328] | – | – | – | – | < 1000 | < 0.2 | Yes | Low (0-0.100) | – | –
6 | CNC(=O)c1ncn(-c2ncc(OC)c3c(C(=O)C(=O)N4CCN(C(=O)c5ccccc5)CC4)c[nH]c23)n1 [Example 274, 1-benzoyl-4-[(4-rnethoxy-7-(3-methylaminocarbonyl-1,2,4-triazol-1-yl)-6-azaindol-3-yl)-oxoacetyl]piperazine] | < 1000 | < 0.2 | Yes | Low (0-0.100) | – | – | – | – | – | –
7 | CCc1ncn(-c2ncc(OC)c3c(C(=O)C(=O)N4CCN(C(=O)c5ccccc5)CC4)c[nH]c23)n1 [Example 321] | < 1000 | < 0.2 | Yes | Low (0-0.100) | – | – | – | – | – | –
8 | CCNC(=O)c1ncn(-c2ncc(OC)c3c(C(=O)C(=O)N4CCN(C(=O)c5ccccc5)CC4)c[nH]c23)n1 [Example 273, 1-benzoyl-4-[(4-methoxy-7-(3-ethylaminocarbonyl-1,2,4-triazol-1-yl)-6-azaindol-3-yl)-oxoacetyl]piperazine] | < 1000 | < 0.2 | Yes | Low (0-0.100) | – | – | – | – | – | –
9 | Cc1ccn(-c2ccnc3c(C(=O)C(=O)N4CCN(C(=O)c5ccccc5)[C@H](C)C4)c[nH]c23)n1 [Example 356] | – | 0.2 to 1000 | Yes | Low (0-0.100) | – | – | – | – | < 1000 | –
10 | Cc1ccnn1-c1ncc(F)c2c(C(=O)C(=O)N3CCN(C(=O)c4ccccc4)CC3)c[nH]c12 [Example 312] | < 1000 | 0.2 to 1000 | Yes | Low (0-0.100) | – | – | – | – | – | –
11 | COc1cnc(-n2cc(C)nn2)c2[nH]cc(C(=O)C(=O)N3CCN(C(=O)c4ccccc4)CC3)c12 [Example 325] | < 1000 | < 0.2 | Yes | Low (0-0.100) | – | – | – | – | – | –
12 | COc1cnc(-c2nccs2)c2[nH]cc(C(=O)C(=O)N3CCN(C(=O)c4ccccc4)CC3)c12 [Example 35, 1-(benzoyl)-4-[(4-methoxy-7-(thiazol-2-yl)-6-azaindol-3-yl)-oxoacetyl]piperazine] | < 1000 | < 0.2 | Yes | Intermediate (0.101-0.200) | – | – | – | – | – | –
13 | COc1cnc(-c2nc(C)n[nH]2)c2[nH]cc(C(=O)C(=O)N3CCN(C(=O)c4ccccc4)CC3)c12 [Example 342] | < 1000 | < 0.2 | Yes | Low (0-0.100) | – | – | – | – | – | –
14 | O=C(C(=O)N1CCN(C(=O)c2ccccc2)CC1)c1c[nH]c2c(-c3cn(-c4ccccc4)nn3)ccnc12 [Example 161] | – | < 0.2 | Yes | High (0.201-0.300) | – | – | – | – | – | < 1000
15 | COc1cnc(-n2ccc(C)n2)c2[nH]cc(C(=O)C(=O)N3CCN(C(=O)c4ccccc4)[C@H](C)C3)c12 [Example 241, (R)-1-benzoyl-2-methyl-4-[(4-methoxy-7-(3-methyl-pyrazol-1-yl)-6-azaindol-3-yl)-oxoacetyl]piperazine] | – | < 0.2 | Yes | Low (0-0.100) | < 1000 | – | – | – | – | –
16 | COc1cnc(-n2ncc(C)n2)c2[nH]cc(C(=O)C(=O)N3CCN(C(=O)c4ccccc4)CC3)c12 [Example 327] | < 1000 | – | – | – | – | 0.2 to 1000 | Yes | Low (0-0.100) | – | –
17 | COc1cnc(-c2ccco2)c2[nH]cc(C(=O)C(=O)N3CCN(C(=O)c4ccccc4)CC3)c12 [Example 73, 1-(benzoyl)-4-[(4-methoxy-7-(furan-2-yl)-6-azaindol-3-yl)-oxoacetyl]piperazine] | < 1000 | < 0.2 | Yes | Intermediate (0.101-0.200) | – | – | – | – | – | –
18 | COc1cnc(-c2cncs2)c2[nH]cc(C(=O)C(=O)N3CCN(C(=O)c4ccccc4)CC3)c12 [Example 71, 1-benzoyl-4-[(4-methoxy-7-(thioazol-5-yl)-6-azaindol-3-yl)-oxoacetyl]piperazine] | < 1000 | < 0.2 | Yes | Intermediate (0.101-0.200) | – | – | – | – | – | –
19 | COc1cnc(-c2cnc(NC(C)=O)s2)c2[nH]cc(C(=O)C(=O)N3CCN(C(=O)c4ccccc4)CC3)c12 [Example 78, 1-benzoyl-4-[(4-methoxy-7-(2-acetylamino-thiazol-5-yl)-6-azaindol-3-yl)-oxoacetyl]piperazine] | < 1000 | 0.2 to 1000 | Yes | Intermediate (0.101-0.200) | – | – | – | – | – | –
